According to ChEMBL document CHEMBL1201862, “PubChem BioAssay data set” (2004):
Activity calls are given as the source filed them.

How the values were obtained:
Cytochrome P450 2D6 = Cytochrome P450 2D6 (Homo sapiens, UniProt P10635);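 further: CYP2D6 member of a cytochrome P450 panel assay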
[1] = target: T1, Replicative DNA helicase DnaB (Mycobacterium tuberculosis, UniProt P9WMR3); test: DnaB intein splicing inhibitors, dose response, biochemical, cell-free fluorescence (AID 449749); format: functional
T1 sequence (P9WMR3 whole entry): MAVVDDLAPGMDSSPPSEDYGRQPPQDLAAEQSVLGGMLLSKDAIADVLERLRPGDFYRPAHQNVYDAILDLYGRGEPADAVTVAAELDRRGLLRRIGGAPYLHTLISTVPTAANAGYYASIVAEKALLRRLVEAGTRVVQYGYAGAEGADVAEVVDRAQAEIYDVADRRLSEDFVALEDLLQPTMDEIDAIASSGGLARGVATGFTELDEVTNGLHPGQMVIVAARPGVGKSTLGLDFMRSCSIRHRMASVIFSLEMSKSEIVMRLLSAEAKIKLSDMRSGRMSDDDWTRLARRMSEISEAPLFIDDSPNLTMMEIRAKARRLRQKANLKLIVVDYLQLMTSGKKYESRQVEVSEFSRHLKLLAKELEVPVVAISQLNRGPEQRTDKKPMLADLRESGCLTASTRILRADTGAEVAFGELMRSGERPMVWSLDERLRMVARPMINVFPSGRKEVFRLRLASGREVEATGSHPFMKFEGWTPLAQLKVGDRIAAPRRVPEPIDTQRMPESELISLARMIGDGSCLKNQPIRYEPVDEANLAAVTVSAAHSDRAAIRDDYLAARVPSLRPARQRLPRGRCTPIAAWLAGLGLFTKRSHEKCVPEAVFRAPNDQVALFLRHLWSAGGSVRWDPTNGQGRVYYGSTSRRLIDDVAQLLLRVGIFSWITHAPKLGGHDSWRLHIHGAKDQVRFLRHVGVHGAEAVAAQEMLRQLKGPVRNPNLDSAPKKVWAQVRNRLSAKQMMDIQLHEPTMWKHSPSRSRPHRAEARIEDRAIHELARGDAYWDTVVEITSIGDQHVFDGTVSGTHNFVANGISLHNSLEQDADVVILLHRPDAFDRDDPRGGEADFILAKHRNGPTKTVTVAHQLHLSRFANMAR

Protein RecA = target: T2, Protein RecA (Mycobacterium tuberculosis, UniProt P9WHJ3); test: Fluorescence Cell-Free Homogeneous Dose Retest to Identify Inhibitors of RecA-Intein Splicing Activity. [Related pubchem assays (depositor defined):AID2097, AID2223, AID489010, AID492950]; format: functional
T2 sequence (P9WHJ3 whole entry): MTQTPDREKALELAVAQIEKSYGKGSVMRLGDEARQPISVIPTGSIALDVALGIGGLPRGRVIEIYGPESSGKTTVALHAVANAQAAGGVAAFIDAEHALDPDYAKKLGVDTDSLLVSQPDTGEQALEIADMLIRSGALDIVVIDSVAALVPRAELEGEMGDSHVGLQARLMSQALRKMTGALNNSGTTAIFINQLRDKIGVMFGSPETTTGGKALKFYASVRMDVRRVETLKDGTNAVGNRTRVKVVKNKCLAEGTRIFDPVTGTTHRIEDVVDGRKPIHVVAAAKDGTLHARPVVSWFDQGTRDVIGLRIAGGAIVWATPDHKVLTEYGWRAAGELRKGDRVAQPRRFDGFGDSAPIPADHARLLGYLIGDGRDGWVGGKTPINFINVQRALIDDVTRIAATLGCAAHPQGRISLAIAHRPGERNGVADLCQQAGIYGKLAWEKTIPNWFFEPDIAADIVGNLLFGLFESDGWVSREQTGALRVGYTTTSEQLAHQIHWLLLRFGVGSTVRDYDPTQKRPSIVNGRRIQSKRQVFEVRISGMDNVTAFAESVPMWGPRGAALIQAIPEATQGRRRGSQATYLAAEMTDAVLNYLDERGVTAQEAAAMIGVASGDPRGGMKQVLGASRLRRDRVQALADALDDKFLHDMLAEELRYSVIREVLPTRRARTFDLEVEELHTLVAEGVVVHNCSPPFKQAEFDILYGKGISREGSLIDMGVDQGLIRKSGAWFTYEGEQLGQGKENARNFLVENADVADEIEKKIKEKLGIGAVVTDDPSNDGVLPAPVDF

[2] = growth suppression of PTEN-null colon cells, dose response, cell-based, HCT116 PTEN knockout (AID 1047); format: functional;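 further: HCT116 colon tumor cells with PTEN knocked out; cells exposed to compound for 60 hours before readout; potency for loss of cell viability measured by luminescence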
[3] = growth suppression of beta-catenin-knockout colon cells, dose response, cell-based, HCT116, human colon tumor (AID 1045); format: functional;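 further: HCT116 colon tumor cells with beta catenin knocked out; cells exposed to compound for 60 hours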
Cytochrome P450 2C9 [4] = target: T3, Cytochrome P450 2C9 (Homo sapiens, UniProt P11712)
Cytochrome P450 2C9 [5] = target: T3, Cytochrome P450 2C9; remark: listed apart in the source
Cytochrome P450 3A4 = Cytochrome P450 3A4 (Homo sapiens, UniProt P08684);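 further: CYP3A4 tested as one member of a cytochrome P450 panel screen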
[6] = Luminescence Cell-Based Dose Confirmation HTS to Identify Activators of 5'UTR Stem-Loop Driven Alpha-Synuclein mRNA Translation in H4 Neuroglioblastoma Cells. [Related pubchem assays: 1829 (Project Summary), 1814 (Primary HTS)]; format: functional
H4 = test: Luminescence Cell-Based Dose Response HTS to Identify Activators of 5'UTR Stem-Loop Driven Prion Protein mRNA Translation in H4 Neuroglioblastoma Cells. [Related pubchem assays: 1829 (Project Summary), 1814 (Primary HTS)]; format: functional; settings: Homo sapiens
Protein skinhead-1 = target: T4, Protein skinhead-1 (Caenorhabditis elegans, UniProt P34707); format: functional
T4 sequence (P34707 whole entry): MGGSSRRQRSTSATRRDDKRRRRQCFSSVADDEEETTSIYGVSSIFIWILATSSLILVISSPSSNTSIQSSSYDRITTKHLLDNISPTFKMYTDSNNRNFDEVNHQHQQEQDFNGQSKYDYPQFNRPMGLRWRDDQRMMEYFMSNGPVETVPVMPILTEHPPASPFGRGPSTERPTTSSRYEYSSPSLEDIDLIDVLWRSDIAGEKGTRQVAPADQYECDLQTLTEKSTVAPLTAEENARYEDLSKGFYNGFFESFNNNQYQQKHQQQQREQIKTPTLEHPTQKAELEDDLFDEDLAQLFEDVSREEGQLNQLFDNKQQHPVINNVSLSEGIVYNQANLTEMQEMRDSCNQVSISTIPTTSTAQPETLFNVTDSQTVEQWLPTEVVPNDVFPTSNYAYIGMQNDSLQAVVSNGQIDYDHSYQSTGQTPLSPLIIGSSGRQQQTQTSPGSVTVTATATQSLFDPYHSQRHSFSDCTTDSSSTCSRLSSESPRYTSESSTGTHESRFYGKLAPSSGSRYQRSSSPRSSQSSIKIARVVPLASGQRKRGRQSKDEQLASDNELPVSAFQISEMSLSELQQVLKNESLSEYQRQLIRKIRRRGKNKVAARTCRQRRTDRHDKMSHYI

[7] = Luminescence Cell-Based Dose Response HTS to Identify Activators of Luciferase Translation or Activity in H4 […] Cells. [Related pubchem assays: 1829 (Project Summary), 1814 (Primary HTS)]; format: functional
[8] = test system: Streptococcus sp. 'group A'; test: growth inhibition of control SK(-) GAS strain, dose response, counter-screen for streptokinase expression inhibitor project, luminescence, kanamycin, BacTiterGlo, confirmation (AID 1900); format: functional, organism-based
Streptococcus = test: Group A Streptococcus viability loss, dose response, counter-screen for streptokinase expression inhibitor project, luminescence, BacTiterGlo (AID 1915); format: functional, organism-based;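 further: potency for reduction of bacterial viability or growth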
Cytochrome P450 1A2 = target: T5, Cytochrome P450 1A2 (Homo sapiens, UniProt P05177);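 further: PubChem cytochrome P450 panel assay, CYP1A2 panel member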
T5 sequence (P05177 whole entry): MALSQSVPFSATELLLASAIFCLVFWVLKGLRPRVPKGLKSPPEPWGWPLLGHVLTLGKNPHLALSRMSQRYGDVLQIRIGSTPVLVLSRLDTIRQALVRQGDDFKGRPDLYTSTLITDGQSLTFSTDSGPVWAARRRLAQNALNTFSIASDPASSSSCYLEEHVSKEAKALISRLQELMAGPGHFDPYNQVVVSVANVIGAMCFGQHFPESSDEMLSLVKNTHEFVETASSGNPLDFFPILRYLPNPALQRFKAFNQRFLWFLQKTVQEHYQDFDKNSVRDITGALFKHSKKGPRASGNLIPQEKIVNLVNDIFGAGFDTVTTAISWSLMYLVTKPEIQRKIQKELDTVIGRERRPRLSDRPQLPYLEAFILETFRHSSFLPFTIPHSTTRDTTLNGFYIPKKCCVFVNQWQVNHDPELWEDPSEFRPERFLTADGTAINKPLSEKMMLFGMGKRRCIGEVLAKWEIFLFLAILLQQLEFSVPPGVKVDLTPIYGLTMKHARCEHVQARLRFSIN

Cytochrome P450 2C19 = Cytochrome P450 2C19 (Homo sapiens, UniProt P33261); test: Cytochrome panel assay with activity outcomes. Panel member name: p450-cyp2c19 Compounds with AC50 equal or less than 10 uM are considered active; format: functional; settings: read-out: AC50
[9] = intracellular Trypanosoma cruzi inhibitors in host cells – cell-based, plate reader, cherry-pick samples, set 3, dose response (AID 651818); format: functional;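 further: compounds incubated with infected cells for about four days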
P388 = test: cells; format: functional; settings: Mus musculus
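Wherever GI50 is given: compound exposure lasted 48 hours before growth was measured.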

T3 sequence (P11712 whole entry): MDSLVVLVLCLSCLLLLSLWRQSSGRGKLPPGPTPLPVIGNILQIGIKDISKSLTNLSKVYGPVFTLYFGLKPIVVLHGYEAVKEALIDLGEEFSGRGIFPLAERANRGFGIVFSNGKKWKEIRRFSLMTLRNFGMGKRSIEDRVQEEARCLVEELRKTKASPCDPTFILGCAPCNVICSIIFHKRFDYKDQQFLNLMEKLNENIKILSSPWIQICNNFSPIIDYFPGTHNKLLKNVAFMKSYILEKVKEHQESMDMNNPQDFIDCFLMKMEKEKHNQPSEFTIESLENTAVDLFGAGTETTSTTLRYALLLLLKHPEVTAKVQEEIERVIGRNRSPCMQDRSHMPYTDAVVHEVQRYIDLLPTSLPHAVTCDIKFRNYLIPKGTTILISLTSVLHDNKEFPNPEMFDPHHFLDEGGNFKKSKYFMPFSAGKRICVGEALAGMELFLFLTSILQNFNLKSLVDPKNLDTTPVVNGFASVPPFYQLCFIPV
Cytochrome P450 2D6, sequence (P10635 whole entry): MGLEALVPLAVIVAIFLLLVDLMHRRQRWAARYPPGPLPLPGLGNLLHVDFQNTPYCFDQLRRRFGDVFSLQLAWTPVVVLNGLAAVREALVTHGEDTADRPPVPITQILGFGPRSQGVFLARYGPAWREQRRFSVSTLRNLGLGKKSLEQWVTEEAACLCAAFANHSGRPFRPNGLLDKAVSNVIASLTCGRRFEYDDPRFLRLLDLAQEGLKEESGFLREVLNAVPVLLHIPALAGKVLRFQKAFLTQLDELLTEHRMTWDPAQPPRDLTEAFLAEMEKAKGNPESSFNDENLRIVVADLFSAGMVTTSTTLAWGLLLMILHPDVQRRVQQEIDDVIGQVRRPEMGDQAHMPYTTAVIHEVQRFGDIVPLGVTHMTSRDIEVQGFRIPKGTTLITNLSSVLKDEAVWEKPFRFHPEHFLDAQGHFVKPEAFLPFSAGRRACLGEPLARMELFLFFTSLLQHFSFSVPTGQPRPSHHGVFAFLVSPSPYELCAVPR
Cytochrome P450 2C19, sequence (P33261 whole entry): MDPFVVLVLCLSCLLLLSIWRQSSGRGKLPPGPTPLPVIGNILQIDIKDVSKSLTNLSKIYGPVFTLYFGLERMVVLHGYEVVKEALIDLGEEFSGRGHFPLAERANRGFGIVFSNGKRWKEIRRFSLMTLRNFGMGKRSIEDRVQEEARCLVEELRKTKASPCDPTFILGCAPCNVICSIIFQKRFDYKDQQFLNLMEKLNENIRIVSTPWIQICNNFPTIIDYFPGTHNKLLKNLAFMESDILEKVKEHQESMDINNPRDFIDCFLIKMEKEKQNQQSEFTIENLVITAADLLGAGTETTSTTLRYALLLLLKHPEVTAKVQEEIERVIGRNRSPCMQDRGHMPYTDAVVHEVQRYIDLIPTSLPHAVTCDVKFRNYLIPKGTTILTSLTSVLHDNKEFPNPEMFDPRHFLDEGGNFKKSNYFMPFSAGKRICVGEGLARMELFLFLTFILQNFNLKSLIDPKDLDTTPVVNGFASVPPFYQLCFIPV
Cytochrome P450 3A4, sequence (P08684 whole entry): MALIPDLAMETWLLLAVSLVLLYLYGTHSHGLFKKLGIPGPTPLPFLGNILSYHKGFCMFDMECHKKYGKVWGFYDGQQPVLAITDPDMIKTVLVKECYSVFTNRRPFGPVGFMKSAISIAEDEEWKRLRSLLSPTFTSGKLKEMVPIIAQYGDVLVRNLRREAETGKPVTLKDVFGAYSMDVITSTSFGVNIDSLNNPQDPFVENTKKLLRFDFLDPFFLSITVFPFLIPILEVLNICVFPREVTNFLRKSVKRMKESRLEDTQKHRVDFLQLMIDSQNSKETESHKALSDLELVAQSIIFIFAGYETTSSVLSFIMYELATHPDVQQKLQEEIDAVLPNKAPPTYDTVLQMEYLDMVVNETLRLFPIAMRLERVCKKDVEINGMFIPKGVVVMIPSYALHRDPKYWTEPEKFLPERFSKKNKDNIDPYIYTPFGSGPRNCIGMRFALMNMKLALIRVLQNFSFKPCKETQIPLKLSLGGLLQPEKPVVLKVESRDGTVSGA

## C[N+](C)(C)C1=NNC2=Nc3ccccc3SC2=C1
Cytochrome P450 2D6
  AC50: 3.98 µM (inconclusive)

## COc1cc(C2NC(=O)C(C#N)=C(Nc3cccc(C)c3)S2)ccc1O (stereo not given)
[1]
  AC50: 42 µM (active)
Protein RecA
  EC50: 20 µM (active)

## O=C(c1ccc([N+](=O)[O-])cc1)[C@@H](Br)[C@@H](Br)c1ccnc2ccccc12
Cytochrome P450 2D6
  AC50: 3.98 µM (inconclusive)

## CCOC(=O)/C(=C/c1ccc(N2CCC(c3ccccc3)=N2)cc1)C(C)=O
[2]
  EC50: 0.014 µM (active)
[3]
  EC50: 26.7 µM (active)

## CCn1c(COc2ccc(OC)cc2)nc2ccccc21
Cytochrome P450 2D6
  AC50: 17.8 µM (inconclusive)
Cytochrome P450 2C9 [4]
  AC50: inconclusive

## CCOC(=O)CC1=NN(c2ccccc2)C(=O)C1
[1]
  AC50: 13.1 µM (active)
Protein RecA
  EC50: 10.1 µM (active)

## O=c1c(-c2cccs2)nc2cncnc2n1Cc1ccc(F)cc1
Cytochrome P450 2C9 [5]
  AC50: 1 µM (inconclusive)
Cytochrome P450 2D6
  AC50: 0.631 µM (inconclusive)

## CCCCN1C(=O)C(O)(CC(=O)c2ccco2)c2cc(Br)ccc21 (stereo not given)
[2]
  EC50: 7.11 µM (active)
[3]
  EC50: 5.01 µM (active)

## COCCNc1ncnc2ccc(-c3ccccc3OC)cc12
Cytochrome P450 2D6
  AC50: 39.8 µM (inconclusive)

## COC(=O)[C@@]1(Cc2ccc(F)cc2)[C@H]2c3cc(C(=O)N(C)C)n(Cc4ccc(C)c(F)c4F)c3C[C@H]2CN1C(=O)c1ccccc1
Cytochrome P450 2D6
  AC50: 20 µM (inconclusive)

## CN(C)C(=O)c1ccc(-c2nc(Nc3ccc(F)cc3)c3ccccc3n2)cc1
Cytochrome P450 2D6
  AC50: 25.1 µM (inconclusive)
Cytochrome P450 3A4
  AC50: 20 µM (inconclusive)

## CC(C)c1n[nH]c2c1C(c1cccs1)C(C#N)=C(N)O2 (stereo not given)
[1]
  AC50: 10.8 µM (active)
Protein RecA
  EC50: 4.29 µM (active)

## CCOC(=O)c1cc2cc3ccccc3cc2[nH]1
[6]
  EC50: 0.164 µM (active)
H4
  EC50: > 120 µM (not active)
Protein skinhead-1
  IC50: > 100 µM (inactive)
[7]
  EC50: 0.191 µM (active)
Protein RecA
  EC50: > 380 µM (inactive)

## O=C(Cn1cc(C(=O)c2ccco2)c2ccccc21)NCc1ccco1
Cytochrome P450 2D6
  AC50: 22.4 µM (inconclusive)

## COC(=O)c1cc([N+](=O)[O-])c(-n2ccnc2)c([N+](=O)[O-])c1
[1]
  AC50: 6.54 µM (active)
Protein RecA
  EC50: 4.53 µM (active)

## COc1cc2cc(/C=C/C(=O)c3ccco3)c(Cl)nc2cc1OC
[2]
  EC50: 11.6 µM (active)
[3]
  EC50: 10.1 µM (active)

## CCOC(=O)CSC1=C(C#N)C(c2sccc2C)C(C(C)=O)=C(C)N1 (stereo not given)
Cytochrome P450 2D6
  AC50: 35.5 µM (inconclusive)

## CCOc1cc(/C=C2/C(=N)N3OC(C)=CC3=NC2=O)ccc1O
[1]
  AC50: 95.1 µM (active)
Protein RecA
  EC50: 26.9 µM (active)

## COc1cc(C2(c3ccc(O)c(OC)c3)C(=O)Nc3c(Br)cc(Br)cc32)ccc1O
[1]
  AC50: 3.13 µM (active)
Protein RecA
  EC50: 4.77 µM (active)

## O=C(N/N=C/c1c[nH]c2ccccc12)c1cc(-c2ccc(-c3ccccc3)cc2)[nH]n1
[6]
  EC50: 0.219 µM (active)
H4
  EC50: > 120 µM (not active)
[8]
  EC50: 3.46 µM (active)
[7]
  EC50: 0.166 µM (active)
Streptococcus
  EC50: 1.56 µM (active)
Cytochrome P450 1A2
  AC50: 3.16 µM (inconclusive)
Cytochrome P450 2C9 [4]
  AC50: inconclusive
[2]
  EC50: 5.81 µM (active)
Cytochrome P450 2C19
  AC50: 6.31 µM (inconclusive)
[3]
  EC50: 8.8 µM (active)

## COc1cccc(/C=N/NC(=O)CNC(=O)C2COc3ccccc3O2)c1O (stereo not given)
[2]
  EC50: 13.1 µM (active)
[3]
  EC50: 10.9 µM (active)

## Cc1ccc(S(=O)(=O)Nc2cccc3c2O[C@H](CN(C)C(=O)Nc2ccc4c(c2)OCO4)[C@H](C)CN([C@H](C)CO)C3=O)cc1
[9]
  AC50: 20 µM (inactive)

## COc1ccc(CN(C)C[C@@H]2Oc3ccc(NC(=O)Cc4ccccc4)cc3CC(=O)N([C@@H](C)CO)C[C@@H]2C)cc1
[9]
  AC50: 4.08 µM (active)

## C[C@@H]1CN([C@H](C)CO)C(=O)Cc2cc(NC(=O)Nc3ccccc3)ccc2O[C@@H]1CN(C)Cc1ccc(C(=O)Nc2ccccc2N)cc1
[9]
  AC50: 3.23 µM (active)

## C[C@@H]1CN([C@H](C)CO)C(=O)Cc2cc(NC(=O)Nc3ccc(F)cc3)ccc2O[C@H]1CN(C)Cc1ccc(C(F)(F)F)cc1
[9]
  AC50: 7.02 µM (active)

## CCOC(=O)/C=c1\s/c(=C\c2ccc(C(F)(F)F)cc2)c(=O)n1CC(=O)NCc1ccco1
[2]
  EC50: 35.9 µM (active)
[3]
  EC50: 45.9 µM (active)

## COc1ccc2c3c(c4cc(OC)c(OC)cc4c2c1)C[C@H]1CCCCN1C3 [CRYPTOPLEURINE]
P388
  GI50: 0.005 µM (active)

## COc1cc2c(cc1OC)-c1cc3ccc(OC)c(OC)c3c[n+]1CC2 [PALMITINE]
Cytochrome P450 2D6
  AC50: 12.6 µM (inconclusive)
